Measurements published in US20180078576A1, “SULPHATED XYLANS FOR TREATMENT OR PROPHYLAXIS OF RESPIRATORY DISEASES” (Paradigm Biopharmaceuticals Limited, priority 2007, published 2018).
Marks after values point to notes of the source that are not given here.

Key:
[1] = target: T1, recombinant human IL-5 (rhIL-5) (Homo sapiens, UniProt P05113); assay: BIAcore inhibition of IL-5 binding to immobilized heparin; settings: BIAcore chip, titration, FIG. 3B
T1 construct: made in house; host or cells: baculovirus expression system
T1 sequence (P05113 20-134): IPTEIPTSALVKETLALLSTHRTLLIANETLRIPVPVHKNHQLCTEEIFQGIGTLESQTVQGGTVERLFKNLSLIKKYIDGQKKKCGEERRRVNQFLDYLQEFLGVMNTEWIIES
Source text: (§1) The optical phenomenon of surface plasmon resonance is used to monitor physical interactions between molecules. Passing a solution of a potential protein ligand (e.g. IL-4, IL-5 or eotaxin) over a sensor surface to which a target (e.g. heparin) is coupled monitors the real-time binding of protein ligands to the immobilized target. Detection is achieved by measuring refractive index changes very close to the sensor surface. When the refractive index is altered, the angle at which plasmon resonance occurs changes and this change directly correlates with the amount of protein interacting with the surface. A BIAcore 2000 is conveniently used. […]
(§2) Biotinylated heparin is immobilized on the biosensor chip. […] Solutions containing potential protein ligands of interest are injected over the sensor chip surface, and the binding is measured in real time (Fernig, In: Proteoglycan protocols, Ed. R. V. Iozzo, Humana Press, Totowa, N.J., USA, 2001). Baculovirus expressed recombinant human IL-4 (rhIL-4) and baculovirus expressed recombinant human IL-5 (rhIL-5) readily bind to heparin immobilized by this method (see PCT/AU2005/000551). […] Similarly, recombinant human eotaxin (CCL11) expressed in E. coli binds readily to immobilized heparin and binding is specific as there is little eotaxin binding to sensor chips lacking heparin. […]

Human leukocyte elastase = target: T2, Human leukocyte elastase (Homo sapiens, UniProt P08246); assay: Elastase assay with fluorogenic substrate; assay type: biochemical; settings: fluorogenic substrate MeOSuc-Ala-Ala-Pro-Val-amido-methylcoumarin, pH 7.4, 37° C., 60 minutes; read-out: IC50, inhibition of human leukocyte elastase activity
T2 sequence (P08246 30-267): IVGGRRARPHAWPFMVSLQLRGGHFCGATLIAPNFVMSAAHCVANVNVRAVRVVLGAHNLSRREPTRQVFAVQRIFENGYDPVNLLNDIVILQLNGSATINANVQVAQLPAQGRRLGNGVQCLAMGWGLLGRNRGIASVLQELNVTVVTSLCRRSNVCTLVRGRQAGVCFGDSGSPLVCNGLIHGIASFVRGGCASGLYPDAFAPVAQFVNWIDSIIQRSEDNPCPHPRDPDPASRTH
Protocol: Elastase is a protein that is a potential target for the treatment of COPD. Elastase assays were performed in 96-well plastic microplates for easy quantification by the fluorescent plate reader. Human leukocyte elastase (5 nM/well) was incubated in the presence of absence of pentosan polysulfate, or other sulfated polysaccharides, with the fluorogenic substrate MeOSuc-Ala-Ala-Pro-Val-amido-methylcoumarin (20 μM/well) in a sodium phosphate buffer, pH 7.4. The mixture was incubated at 37° C. for 60 minutes before the reaction was stopped by the addition of 10 μl/well of […] acetic acid and the mixture transferred to a 96-well microplate with fluorescence being measured using an excitation wavelength of 355 nm and an emission wavelength of 460 nm. Various concentrations of inhibitors were used to allow the calculation of the concentration of polysaccharide required to inhibit enzyme activity by 50% (IC50).

[2] = target: T3, recombinant human eotaxin (CCL11) (Homo sapiens, UniProt P51671); assay: BIAcore inhibition of eotaxin-1 binding to immobilized heparin; settings: BIAcore chip, FIG. 3D
T3 construct: host or cells: E. coli
Source text: as §1, §2

[3] = test system: Guinea-pigs sensitized to ovalbumin; assay: Guinea pig model of asthma, airway hyper-reactivity 24 h after OVA challenge; assay type: in vivo; settings: Dexamethasone 15 mg/kg, glycan compounds 10 mg/kg, intratracheal microspray
Protocol: A guinea pig model of asthma was used. Guinea-pigs (8 per group) were sensitized to ovalbumin by two intraperitoneal injections of ovalbumin (grade V, 20 μg) in aluminium hydroxide gel on Days 1 and 11. On day 20 (24 hours prior to assessing airway hyper-reactivity (AHR)) each animal received a challenge dose of OVA—this took the form of a 1 hour aerosol exposure of OVA (10 μg). The negative control animals received, no sensitization and no challenge. The positive controls were sensitized and challenged but were either given no further treatment or were treated with vehicle (saline). Test compounds (PPS and the sulfated xylan pentasaccharide) and vehicle were administered by intratracheal administration as an aqueous microspray using a Penn Century device. The device used was the FMJ250 high pressure syringe and a 1A-1C microspray delivery tube. The particle size delivery goes up to 32 μm. During the study the volume delivered was 100 ul for all test formulations. The test compounds were administered 30 min before challenge with OVA. The animals underwent surgery 24 hours after challenge to insert a cannula into the trachea, the cannula was connected to the instrumentation which measured pressure and changes in airflow. After surgery the animals were allowed to stabilize for 10 min before baseline readings were taken. Bronchoconstriction was evoked with aerosolized methacholine (10 mg/ml and 30 mg/ml) for 20 seconds. The difference between baseline readings and that obtained after methacholine were used to calculate Cdyn and RL. Thus, measurements of lung function were taken approximately 25 hours after the drug was administered. Both pentosan polysulfate and the sulfated xylan pentasaccharide when administered at 10 mg/kg were effective in reducing the airway hyper-reactivity readings. Their efficacy was approximately equivalent to that usually seen with 7.5 mg/kg of dexamethasone in this model.

T3 sequence (P51671 24-97): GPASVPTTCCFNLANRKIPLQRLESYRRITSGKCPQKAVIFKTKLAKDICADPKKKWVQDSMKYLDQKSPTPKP

| Compound | IC50 [1] [nM] | IC50 (Human leukocyte elastase) [nM] | IC50 [2] [nM] | Cdyn, % increase from that of the positive control ([3]; MCh 10 mg/ml) [% **] | RL, % decrease from that of the positive control ([3]; MCh 10 mg/ml) [% **] | Cdyn, % increase from that of the positive control ([3]; MCh 30 mg/ml) [% **^] | RL, % decrease from that of the positive control ([3]; MCh 30 mg/ml) [% **] |
| --- | --- | --- | --- | --- | --- | --- | --- |
| heparin | 30 to 100 | ~200 | ~160 | – | – | – | – |
| C[C@@H]1C[C@H]2[C@@H]3CCC4=CC(=O)C=C[C@]4(C)[C@@]3(F)[C@@H](O)C[C@]2(C)[C@@]1(O)C(=O)CO [Dexamethasone] | – | – | – | 76.5 | 93.9 | 84.8 | 86 |
